Measurements taken from article PMC11473290, “1,3,4-oxadiazoles as inhibitors of the atypical member of the BET family bromodomain factor 3 from Trypanosoma cruzi (TcBDF3)” (Frontiers in Microbiology, 2024).
Like-named read-outs stand apart in the source and are kept apart here.

Experiments:
TcBDF3 [1] = biological target: T1, TcBDF3 (Trypanosoma cruzi, UniProt Q4DXV1); test: Fluorescence polarization (FP) assay, displacement of BSP-AF488 probe; type: binding; settings: 0.5 μM BSP-AF488, 100-μM TcBDF3
Protocol: FP measurement was performed on a Cary Eclipse spectrophotometer equipped with a polarizer at an excitation wavelength of 488 nm and an emission wavelength of […] in a 3-ml fluorescence cuvette. The essay was set at a final volume of 2 mL, 0.5 μM of BSP-AF488, 100-μM TcBDF3, phosphate pH = 8, glycerol 1%, and DMSO 0.5%. The FP values were plotted against the log of the compound concentrations in a non-linear regression model in GraphPad Prism 9.0 as previously described ([Zhang et al., 2002]). In this assay, A1B4, A1B4c, and A5B4c were used. Briefly, free and bound probes (BSP-AF488 in the presence of TcBDF3) were included in each replica. Since the intensity of the probe remains similar for all samples, the fraction of the probe bound to TcBDF3 is correlated to the mP value. Thus, the percentage of inhibition can be derived from the equation % inhibition =100[1 − (mP − mPf)/(mPb − mPf)], in which mPf is the free probe control and mPb is the bound probe control. Based on the percentage of inhibition, the inhibitory concentration (IC50), or the inhibitor concentration at which 50% of the bound probe is displaced, is obtained by fitting the inhibition data.

[2] = test system: TcBD2 (recombinant bromodomain of TcBDF2); test: Tryptophan intrinsic fluorescence quenching assay; type: binding, Trypanosoma cruzi; settings: 10-μM protein; 5, 10 and 20 μM compound; cut-off 0.9 normalized units
Protocol: (§1) 96-well black microplates with 10-μM recombinant proteins (TcBDF3, TcBDF3m, TcBD3, and TcBD2) and three concentrations of each compound were used (5, 10, and 20 μM). In this assay, A1B4 and iBET-151 (positive control) were used. All determinations were made from the top with an excitation wavelength of 275 and a 340/30 nm emission filter, 50 reads per well, and a PMT-sensitivity setting of 180 in a Synergy HT multidetection microplate reader equipped with time-resolved capable optics. Each condition was tested in triplicates, and normalized maximum fluorescence intensityvs. Concentration was plotted using GraphPad Prism 9.0. The relative fluorescence intensity obtained to the condition without the inhibitor was normalized.

[3] = test system: TcBD3 (bromodomain of TcBDF3, amino acids 1-151); test: Tryptophan intrinsic fluorescence quenching assay; type: binding, Trypanosoma cruzi; settings: 10-μM protein; 5, 10 and 20 μM compound; cut-off 0.9 normalized units
Protocol: as §1

[4] = test system: TcBDF3m (Y123A and L130A); test: Tryptophan intrinsic fluorescence quenching assay; type: binding, Trypanosoma cruzi; settings: 10-μM protein; 5, 10 and 20 μM compound; cut-off 0.9 normalized units
Protocol: as §1

TcBDF3 [5] = biological target: T1, TcBDF3; settings: full-length TcBDF3; previously published; ref García et al., 2018; read-out: Kd ± SD DSF; cited from earlier work
[6] = test system: T. cruzi Dm28c epimastigotes; design: method as in García et al., 2018; settings: already published, ref García et al., 2018, cited from earlier work
[7] = test system: T. cruzi Dm28c trypomastigotes; design: method as in García et al., 2018; settings: already published, ref García et al., 2018, cited from earlier work
[8] = test system: T. cruzi Dm28c amastigotes; design: method as in García et al., 2018; settings: already published, ref García et al., 2018, cited from earlier work
Vero cells = test system: Vero cells; design: method as in García et al., 2018; settings: MTT; already published; ref García et al., 2018; cited from earlier work
TcBDF3 [9] = biological target: T1, TcBDF3; test: Thermal shift assay (DSF), dissociation constants; type: binding; settings: full-length TcBDF3; SD from three independent experiments
Protocol: The proteins were buffered in 10-mM HEPES, pH 7.5, and 500 mM NaCl and assayed in a 48-well plate at a final concentration of 2 μM in a volume of 20 μL. Compounds were added at a final concentration between 1 and 200 μM to calculate dissociation constants. In this assay, A1B4, A1B4c, A5B4 and A5B4c were used. SYPRO Orange (Invitrogen) was added as a fluorescence probe at a dilution of 1:1000. The excitation and emission filters for the SYPRO Orange dye were set at 465 and 590 nm, respectively. The temperature was increased with steps of 2°C/min from 25°C to 96°C, and fluorescence readings were taken at each interval in a CFX Opus 96 Real-Time System (Biorad) and analyzed using Maestro Software (Biorad). The melting curves and average melting temperature for each condition were obtained and plotted in temperature vs. concentration graphs in GraphPad Prism 9.0. Plots were fitted using the differential fluorescence scanning (DSF) single binding site equation to obtain the dissociation constants (Kd) in GraphPad Prism 9.0.

[10] = test system: T. cruzi Dm28c epimastigotes; test: Beta-galactosidase assay, epimastigotes; type: cell-based, Trypanosoma cruzi; settings: for SI (E), CC50/IC50 epimastigotes: CC50 Vero cells / IC50; for IC50: Dm28c strain expressing β-galactosidase, read-out: IC50 ± SD Epimastigotes
Protocol: (§2) T. cruzi Dm28c that expresses the E. coli LacZ gene epimastigotes, trypomastigotes, and amastigotes were cultured and obtained as previously described ([Buckner et al., 1996]; [Alonso et al., 2021]). […] The controls included for the amastigotes (intracellular stage) were (a) uninfected cells and (b) infected with 1 μg/mL benznidazole (BZ) (positive control) and 1% DMSO to evaluate the toxicity of the solvent. For epimastigotes and trypomastigotes, the controls used were: 1-μg/ml benznidazole (BZ) (positive control) and 1% DMSO to evaluate solvent toxicity. Results obtained with this assay were verified by manually counting the parasites. The results were expressed as the percentage of inhibition of T. cruzi growth in compound-treated infected cells compared to untreated infected cells for amastigotes. For epimastigotes and trypomastigotes, treated and untreated cultured parasites were compared. Quadruplicates were run in the same microplate and repeated in three experiments. Half-maximal IC50 values were calculated using non-linear regression on GraphPad Prism 9.0, as previously described ([Alonso et al., 2021]).

[11] = test system: T. cruzi Dm28c trypomastigotes; test: Beta-galactosidase assay, trypomastigotes; type: cell-based, Trypanosoma cruzi; settings: for SI (T), CC50/IC50 trypomastigotes: CC50 Vero cells / IC50
Protocol: as §2

[12] = test system: T. cruzi Dm28c amastigotes; test: Beta-galactosidase assay, amastigotes in Vero cells; type: cell-based, Trypanosoma cruzi; settings: for SI (A), CC50/IC50 amastigotes: CC50 Vero cells / IC50; for IC50: Dm28c strain expressing β-galactosidase, 48 h postinfection of Vero cells, read-out: IC50 ± SD Amastigotes
Protocol: as §2

[13] = MTT assay, cell viability; type: cell-based; settings: African green monkey, Vero cells
Protocol: The 3-(4,5-dimethylthiazol-2-yl)-2,5-diphenyltetrazolium bromide (MTT) reduction assay determined cell viability after treatment as previously described ([García et al., 2018]). Optical density (OD) was spectrophotometrically quantified (λ = 540 nm) using a Synergy HT multidetection microplate reader. DMSO was used as blank, and each treatment was performed in triplicates. The 50% cytotoxic concentration (CC50) values were calculated by non-linear regression on GraphPad Prism 9.0, and the selectivity indexes (SI) were determined as the ratio CC50/IC50 in all three life cycle stages.

T1 sequence (Q4DXV1 entry or part of it): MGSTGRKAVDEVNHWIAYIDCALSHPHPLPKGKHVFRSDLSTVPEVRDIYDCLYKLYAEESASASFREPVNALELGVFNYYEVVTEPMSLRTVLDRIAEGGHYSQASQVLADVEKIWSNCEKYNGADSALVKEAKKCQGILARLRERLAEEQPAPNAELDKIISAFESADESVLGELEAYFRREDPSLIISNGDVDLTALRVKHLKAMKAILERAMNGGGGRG

SMILES | IC50 (TcBDF3 [1]) | Kd (TcBDF3 [9]) | SI (E), CC50/IC50 epimastigotes [10] | IC50 ([10]; Trypanosoma cruzi) | SI (T), CC50/IC50 trypomastigotes [11] | SI (A), CC50/IC50 amastigotes [12] | IC50 ([12]; Trypanosoma cruzi, Vero, 48 h) | CC50 [13] | further results
COc1cc(/C=N/NC(=O)c2cccs2)ccc1O [A1B4, (E)-N′-(4-hydroxy-3-methoxybenzylidene)thiophene-2-carbohydrazide] | 2.4 ± 0.3 µM | – | – | – | – | – | – | – | Binding (fluorescence quenching) [2]: did not bind; Binding (fluorescence quenching) [3]: binds; Binding (fluorescence quenching) [4]: did not bind; Kd (TcBDF3 [5]): 1.7 ± 0.2 µM; IC50 ([6]; Dm28c strain expressing β-galactosidase, read-out: IC50 ± SD Epimastigotes): 23 ± 2.04 µM; SI (E), CC50/IC50 epimastigotes [6]: 11.7; IC50 ([7]; Dm28c strain expressing β-galactosidase, read-out: IC50 ± SD Tripomastigotes): 17.8 ± 2.13 µM; SI (T), CC50/IC50 trypomastigotes [7]: 15; IC50 ([8]; Dm28c strain expressing β-galactosidase, read-out: IC50 ± SD Amastigotes): 13.1 ± 1.43 µM; SI (A), CC50/IC50 amastigotes [8]: 20.5; CC50 (Vero cells): 269 ± 4.28 µM
COc1cc(-c2nnc(-c3cccs3)o2)ccc1O [A1B4c, 2-methoxy-4-(5-(thiophen-2-yl)-1,3,4-oxadiazol-2-yl)phenol] | 8.4 ± 0.5 µM | 4 ± 0.3 µM | 11 | < 10 µM | 54.4 | 13 | < 10 µM | 90.8 ± 3.54 µM | IC50 [10]: 8.13 ± 0.87 µM; IC50 [12]: 6.9 ± 0.67 µM; melting point: 224 °C
O=C(N/N=C/c1ccc(CO)o1)c1cccs1 [A5B4, (E/Z)-N′-((5-(hydroxymethyl)furan-2-yl)methylene) thiophene-2-carbohydrazide] | – | 136 ± 2.4 µM | – | – | – | – | – | – | –
OCc1ccc(-c2nnc(-c3cccs3)o2)o1 [A5B4c, (5-(5-(thiophene-2-yl)-1,3,4-oxadiazol-2-yl)furan-2-yl)methanol] | 10.5 ± 0.9 µM | 4.8 ± 0.2 µM | 21.3 | 14.8 ± 1.38 µM | 23.5 | 37 | 8.49 ± 1.63 µM | 316 ± 4.35 µM | IC50 ([11]; Trypanosoma cruzi, Dm28c strain expressing β-galactosidase, read-out: IC50 ± SD Tripomastigotes): 13.4 ± 1.25 µM
